# Test system: Staphylococcus aureus
# Test: Bactericidal activity against Staphylococcus aureus ATCC 29213 assessed as bacterial eradication at 4 times of MIC measured after 24 hrs by time-kill kinetics assay relative to control
# Assay type: functional
smiles,measurement,value
CC1C/C(=C\c2ccc(-c3ccc(Cl)c(C(F)(F)F)c3)s2)c2nc3ccccc3c(C(=O)O)c2C1 (racemic),Activity,100%

# Source: ChEMBL document CHEMBL6078677, “Discovery and optimization of tetrahydroacridine derivatives as a novel class of antibiotics against multidrug-resistant Gram-positive pathogens by targeting type I signal peptidase and disrupting bacterial membrane” (Eur J Med Chem, 2025)
